Read-outs that look alike come from different tables or passages of the source.
What was measured:
Experiment in all cases: Tyrosine kinase inhibition assay
Assay type in all cases: biochemical
EGFR (ErbB1) = EGFR (ErbB1) (Homo sapiens, UniProt P00533); conditions: single concentration 1.0 μM, read-out: percent inhibition
Description: (§1) Tyrosine kinase inhibition assays were performed at ThermoFisher Life Technologies (Madison, WI, USA) using standard protocols (SelectScreen Biochemical Profiling Service, Thermo Fisher Scientific). ATP concentrations used were at the apparent Km. Test compounds were screened in 1% dimethylsulffoxide (DMSO) (final concentration) in the well. For 10-point titrations, 3-fold serial dilutions were conducted from the starting concentration of […]. All Peptide/Kinase Mixtures were diluted to a 2× working concentration in the appropriate Kinase Buffer. All ATP Solutions were diluted to a 4× working concentration in Kinase Buffer (50 mM HEPES pH 7.5, 0.01% BRIJ-35, 10 mM MgCl2, 1 mM EGTA). The apparent ATP Km was previously determined using a Z′-LYTE assay. The Development Reagent was diluted in Development Buffer.
(§2) The inhibition activities of compounds were determined in biochemical assays using single concentration (1.0 μM) measurements. The results were provided as percent inhibition values. […] 99 different tyrosine kinases were used.

MAPK10 (JNK3) = MAPK10 (JNK3) (Homo sapiens, UniProt P53779); conditions: single concentration 1.0 μM, read-out: percent inhibition
Procedure, shortened: (§3)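 Peptide/kinase mixtures and ATP (apparent Km) are combined in 50 mM HEPES pH 7.5 kinase buffer with 10 mM MgCl2, 1 mM EGTA and 0.01% BRIJ-35, compound at 1.0 μM in 1% DMSO. Development reagent is then added and percent inhibition calculated.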

TNK2 (ACK) = TNK2 (ACK) (Homo sapiens, UniProt Q07912); conditions: single concentration 1.0 μM, read-out: percent inhibition
Procedure, shortened: as §3

INSR = INSR (Homo sapiens, UniProt P06213); conditions: single concentration 1.0 μM, read-out: percent inhibition
Procedure, shortened: as §3

LTK (TYK1) = LTK (TYK1) (Homo sapiens, UniProt P29376); conditions: single concentration 1.0 μM, read-out: percent inhibition
Procedure, shortened: as §3

[1] = target: PIK3CA/PIK3R1 (p110 alpha/p85 alpha) (Homo sapiens, UniProt P42336); conditions: read-out: percent inhibition
Procedure, shortened: as §3

FGFR2 = FGFR2 (Homo sapiens, UniProt P21802); conditions: single concentration 1.0 μM, read-out: percent inhibition
Procedure, shortened: as §3

[2] = target: PIK3CB/PIK3R1 (p110 beta/p85 alpha) (Homo sapiens, UniProt P42338); conditions: single concentration 1.0 μM, read-out: percent inhibition
Procedure, shortened: as §3

MATK (HYL) = target: T1, MATK (HYL) (Homo sapiens, UniProt P42679); conditions: single concentration 1.0 μM, read-out: percent inhibition
T1 sequence (P42679 1-507): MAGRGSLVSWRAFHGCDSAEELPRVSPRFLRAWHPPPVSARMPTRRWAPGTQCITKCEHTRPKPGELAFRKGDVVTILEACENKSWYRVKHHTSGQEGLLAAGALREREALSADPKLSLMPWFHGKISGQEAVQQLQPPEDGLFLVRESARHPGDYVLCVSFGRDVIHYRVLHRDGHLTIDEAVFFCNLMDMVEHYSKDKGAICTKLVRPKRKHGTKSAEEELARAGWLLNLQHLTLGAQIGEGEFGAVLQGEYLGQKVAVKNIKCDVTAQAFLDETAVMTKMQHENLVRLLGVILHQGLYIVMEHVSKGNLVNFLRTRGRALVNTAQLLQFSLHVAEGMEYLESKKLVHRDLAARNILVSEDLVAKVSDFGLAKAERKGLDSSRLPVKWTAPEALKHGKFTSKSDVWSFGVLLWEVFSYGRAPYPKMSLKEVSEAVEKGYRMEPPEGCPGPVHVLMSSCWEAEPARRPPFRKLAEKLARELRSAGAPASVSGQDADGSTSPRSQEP
Procedure, shortened: as §3

NTRK1 (TRKA) = NTRK1 (TRKA) (Homo sapiens, UniProt P04629); conditions: single concentration 1.0 μM, read-out: percent inhibition
Procedure, shortened: as §3

MUSK = target: T2, MUSK (Homo sapiens, UniProt O15146); conditions: single concentration 1.0 μM, read-out: percent inhibition
T2 sequence (O15146 24-869): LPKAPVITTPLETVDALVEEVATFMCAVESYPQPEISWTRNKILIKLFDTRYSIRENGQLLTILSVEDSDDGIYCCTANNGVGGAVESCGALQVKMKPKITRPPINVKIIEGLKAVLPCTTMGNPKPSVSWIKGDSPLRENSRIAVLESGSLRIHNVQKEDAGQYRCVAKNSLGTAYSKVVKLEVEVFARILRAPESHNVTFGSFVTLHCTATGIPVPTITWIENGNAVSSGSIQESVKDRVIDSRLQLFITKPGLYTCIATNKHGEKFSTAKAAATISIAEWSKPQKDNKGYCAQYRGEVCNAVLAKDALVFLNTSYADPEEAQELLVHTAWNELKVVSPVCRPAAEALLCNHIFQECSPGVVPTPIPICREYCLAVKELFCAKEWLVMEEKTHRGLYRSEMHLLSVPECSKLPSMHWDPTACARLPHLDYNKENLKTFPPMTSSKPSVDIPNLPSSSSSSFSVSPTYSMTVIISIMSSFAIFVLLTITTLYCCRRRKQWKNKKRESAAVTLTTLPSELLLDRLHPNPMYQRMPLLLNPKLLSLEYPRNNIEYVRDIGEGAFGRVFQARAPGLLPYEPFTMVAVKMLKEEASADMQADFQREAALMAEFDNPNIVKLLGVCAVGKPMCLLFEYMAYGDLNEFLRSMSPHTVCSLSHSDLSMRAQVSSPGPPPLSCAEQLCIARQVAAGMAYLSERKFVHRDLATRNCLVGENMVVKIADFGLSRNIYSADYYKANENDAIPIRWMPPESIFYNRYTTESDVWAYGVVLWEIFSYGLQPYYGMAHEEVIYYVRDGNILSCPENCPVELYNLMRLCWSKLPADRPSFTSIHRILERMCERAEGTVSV
Procedure, shortened: as §3

RAF1 (cRAF) Y340D Y341D = RAF1 (cRAF) Y340D Y341D (Homo sapiens, UniProt P04049, Y340D/Y341D); conditions: single concentration 1.0 μM, read-out: percent inhibition
Procedure, shortened: as §3

BRAF = BRAF (Homo sapiens, UniProt P15056); conditions: single concentration 1.0 μM, read-out: percent inhibition
Procedure, shortened: as §3

NTRK3 (TRKC) = NTRK3 (TRKC) (Homo sapiens, UniProt Q16288); conditions: single concentration 1.0 μM, read-out: percent inhibition
Procedure, shortened: as §3

ABL2 (Arg) = ABL2 (Arg) (Homo sapiens, UniProt P42684); conditions: single concentration 1.0 μM, read-out: percent inhibition
Procedure, shortened: as §3

ABL1 = ABL1 (Homo sapiens, UniProt P00519); conditions: single concentration 1.0 μM, read-out: percent inhibition
Description: as §1, §2

[3] = PIK3CA/PIK3R1 (p110 alpha/p85 alpha), single concentration 1.0 μM

Chain of BRAF (P15056 whole entry): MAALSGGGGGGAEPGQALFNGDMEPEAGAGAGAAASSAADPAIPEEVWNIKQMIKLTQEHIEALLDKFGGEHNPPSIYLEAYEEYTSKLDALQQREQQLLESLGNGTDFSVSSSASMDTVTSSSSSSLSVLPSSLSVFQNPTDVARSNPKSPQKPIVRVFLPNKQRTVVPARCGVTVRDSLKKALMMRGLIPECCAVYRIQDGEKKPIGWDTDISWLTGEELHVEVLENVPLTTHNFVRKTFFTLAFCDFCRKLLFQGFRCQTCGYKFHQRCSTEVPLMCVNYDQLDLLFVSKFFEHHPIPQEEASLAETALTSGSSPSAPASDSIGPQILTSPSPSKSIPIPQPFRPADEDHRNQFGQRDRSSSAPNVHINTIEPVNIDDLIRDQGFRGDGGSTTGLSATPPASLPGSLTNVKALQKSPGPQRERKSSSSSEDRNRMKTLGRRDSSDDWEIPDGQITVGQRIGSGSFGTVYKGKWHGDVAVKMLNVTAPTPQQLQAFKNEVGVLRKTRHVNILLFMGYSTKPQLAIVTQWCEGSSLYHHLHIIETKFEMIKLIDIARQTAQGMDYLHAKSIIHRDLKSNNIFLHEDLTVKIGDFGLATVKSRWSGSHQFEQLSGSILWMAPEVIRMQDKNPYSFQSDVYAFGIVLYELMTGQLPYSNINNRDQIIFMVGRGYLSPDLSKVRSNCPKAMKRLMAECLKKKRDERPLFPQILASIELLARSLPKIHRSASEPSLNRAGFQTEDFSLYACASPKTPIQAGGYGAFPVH
Chain of NTRK1 (TRKA) (P04629 33-796): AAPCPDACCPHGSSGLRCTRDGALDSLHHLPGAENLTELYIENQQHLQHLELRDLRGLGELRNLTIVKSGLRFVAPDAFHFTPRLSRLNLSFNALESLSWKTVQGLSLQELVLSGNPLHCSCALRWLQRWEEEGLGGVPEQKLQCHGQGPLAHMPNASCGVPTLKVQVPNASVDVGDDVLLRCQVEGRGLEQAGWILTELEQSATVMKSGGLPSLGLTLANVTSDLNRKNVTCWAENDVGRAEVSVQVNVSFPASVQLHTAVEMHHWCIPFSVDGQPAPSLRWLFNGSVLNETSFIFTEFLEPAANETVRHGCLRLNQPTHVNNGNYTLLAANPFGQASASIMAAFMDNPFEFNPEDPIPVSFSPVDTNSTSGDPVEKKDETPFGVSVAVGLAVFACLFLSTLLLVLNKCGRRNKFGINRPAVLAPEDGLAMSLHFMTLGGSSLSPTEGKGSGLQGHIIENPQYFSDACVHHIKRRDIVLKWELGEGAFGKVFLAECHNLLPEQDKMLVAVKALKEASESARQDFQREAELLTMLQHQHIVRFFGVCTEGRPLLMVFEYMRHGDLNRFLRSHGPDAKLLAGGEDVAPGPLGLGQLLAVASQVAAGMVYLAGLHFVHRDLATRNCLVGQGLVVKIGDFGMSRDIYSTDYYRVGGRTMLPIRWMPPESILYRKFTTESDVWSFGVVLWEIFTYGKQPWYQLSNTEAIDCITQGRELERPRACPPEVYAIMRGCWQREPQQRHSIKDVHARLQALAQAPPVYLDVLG
Chain of ABL2 (Arg) (P42684 whole entry): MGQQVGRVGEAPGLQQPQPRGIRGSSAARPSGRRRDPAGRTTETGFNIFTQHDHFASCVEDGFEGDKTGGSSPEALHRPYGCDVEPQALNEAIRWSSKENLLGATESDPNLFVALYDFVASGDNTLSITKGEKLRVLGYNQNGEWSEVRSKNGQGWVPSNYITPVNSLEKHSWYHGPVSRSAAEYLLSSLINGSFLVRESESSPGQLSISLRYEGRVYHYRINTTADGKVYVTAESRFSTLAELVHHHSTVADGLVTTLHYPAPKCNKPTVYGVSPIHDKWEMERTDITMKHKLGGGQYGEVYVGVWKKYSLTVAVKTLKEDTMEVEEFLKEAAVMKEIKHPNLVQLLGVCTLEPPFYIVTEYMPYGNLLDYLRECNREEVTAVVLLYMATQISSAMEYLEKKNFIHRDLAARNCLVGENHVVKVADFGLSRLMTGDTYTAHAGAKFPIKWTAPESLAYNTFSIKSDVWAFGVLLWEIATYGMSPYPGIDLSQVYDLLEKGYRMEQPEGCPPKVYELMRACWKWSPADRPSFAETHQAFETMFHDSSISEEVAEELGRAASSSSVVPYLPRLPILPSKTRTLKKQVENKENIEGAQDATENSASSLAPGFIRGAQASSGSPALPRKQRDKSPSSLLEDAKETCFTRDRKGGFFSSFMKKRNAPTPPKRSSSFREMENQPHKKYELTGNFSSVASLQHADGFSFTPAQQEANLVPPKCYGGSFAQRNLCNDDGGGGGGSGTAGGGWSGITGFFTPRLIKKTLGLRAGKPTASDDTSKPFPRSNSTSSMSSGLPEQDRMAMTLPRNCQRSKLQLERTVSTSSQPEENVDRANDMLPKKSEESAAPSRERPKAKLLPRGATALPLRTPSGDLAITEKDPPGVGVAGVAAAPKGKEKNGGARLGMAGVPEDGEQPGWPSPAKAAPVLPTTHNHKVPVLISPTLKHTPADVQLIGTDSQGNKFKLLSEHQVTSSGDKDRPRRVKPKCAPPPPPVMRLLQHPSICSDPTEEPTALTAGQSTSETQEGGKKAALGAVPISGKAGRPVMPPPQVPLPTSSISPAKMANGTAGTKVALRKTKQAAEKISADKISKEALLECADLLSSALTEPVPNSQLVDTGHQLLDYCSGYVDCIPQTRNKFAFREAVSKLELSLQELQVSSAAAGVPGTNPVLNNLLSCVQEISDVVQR
Chain of PIK3CA/PIK3R1 (p110 alpha/p85 alpha) (P42336 whole entry): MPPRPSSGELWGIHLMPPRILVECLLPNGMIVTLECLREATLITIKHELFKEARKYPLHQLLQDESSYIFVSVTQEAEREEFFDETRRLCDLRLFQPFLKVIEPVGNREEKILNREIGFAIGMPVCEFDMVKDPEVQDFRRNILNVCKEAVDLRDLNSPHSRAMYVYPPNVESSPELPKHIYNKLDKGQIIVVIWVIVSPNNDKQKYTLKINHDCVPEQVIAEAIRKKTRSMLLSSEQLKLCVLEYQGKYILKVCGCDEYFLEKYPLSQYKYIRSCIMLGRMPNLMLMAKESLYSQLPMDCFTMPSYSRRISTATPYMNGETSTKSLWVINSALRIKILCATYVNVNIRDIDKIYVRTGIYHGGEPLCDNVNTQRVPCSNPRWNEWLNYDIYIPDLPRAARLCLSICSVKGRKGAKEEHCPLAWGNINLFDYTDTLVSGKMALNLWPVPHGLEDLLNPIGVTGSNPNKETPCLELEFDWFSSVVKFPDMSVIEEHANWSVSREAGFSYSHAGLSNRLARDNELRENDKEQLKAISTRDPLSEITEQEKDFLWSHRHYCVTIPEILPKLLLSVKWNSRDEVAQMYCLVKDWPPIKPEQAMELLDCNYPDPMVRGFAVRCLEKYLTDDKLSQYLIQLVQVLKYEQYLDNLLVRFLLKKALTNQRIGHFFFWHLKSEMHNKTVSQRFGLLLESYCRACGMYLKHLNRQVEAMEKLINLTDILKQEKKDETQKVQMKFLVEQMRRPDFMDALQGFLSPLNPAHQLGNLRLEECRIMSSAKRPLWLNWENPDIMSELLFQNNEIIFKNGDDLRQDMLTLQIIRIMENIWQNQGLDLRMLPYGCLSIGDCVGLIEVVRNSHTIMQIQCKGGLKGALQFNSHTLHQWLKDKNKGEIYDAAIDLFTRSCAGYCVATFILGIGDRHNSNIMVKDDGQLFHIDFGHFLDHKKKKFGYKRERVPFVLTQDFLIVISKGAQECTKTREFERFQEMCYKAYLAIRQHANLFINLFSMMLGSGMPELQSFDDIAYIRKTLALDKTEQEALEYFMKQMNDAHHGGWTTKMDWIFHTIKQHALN
Chain of PIK3CA/PIK3R1 (p110 alpha/p85 alpha) (P27986 whole entry partner): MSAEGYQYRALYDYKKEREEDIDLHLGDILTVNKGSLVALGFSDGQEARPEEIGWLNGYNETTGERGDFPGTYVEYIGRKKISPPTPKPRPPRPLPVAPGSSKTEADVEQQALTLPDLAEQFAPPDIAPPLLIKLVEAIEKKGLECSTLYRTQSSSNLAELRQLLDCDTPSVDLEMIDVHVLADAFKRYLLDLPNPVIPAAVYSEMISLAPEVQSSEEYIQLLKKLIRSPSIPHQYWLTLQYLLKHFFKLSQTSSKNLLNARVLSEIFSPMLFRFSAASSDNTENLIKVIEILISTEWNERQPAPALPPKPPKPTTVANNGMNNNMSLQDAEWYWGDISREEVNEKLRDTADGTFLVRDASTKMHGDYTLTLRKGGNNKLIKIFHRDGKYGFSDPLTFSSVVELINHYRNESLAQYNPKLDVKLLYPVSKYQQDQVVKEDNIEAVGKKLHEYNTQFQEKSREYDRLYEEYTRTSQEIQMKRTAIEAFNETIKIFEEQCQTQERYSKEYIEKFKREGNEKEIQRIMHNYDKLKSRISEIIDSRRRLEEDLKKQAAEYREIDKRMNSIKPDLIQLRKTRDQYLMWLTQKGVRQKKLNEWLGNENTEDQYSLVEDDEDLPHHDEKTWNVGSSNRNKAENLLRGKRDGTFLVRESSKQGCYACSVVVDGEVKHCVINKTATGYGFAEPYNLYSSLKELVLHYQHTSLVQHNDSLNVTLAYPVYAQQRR
Chain of MAPK10 (JNK3) (P53779 whole entry): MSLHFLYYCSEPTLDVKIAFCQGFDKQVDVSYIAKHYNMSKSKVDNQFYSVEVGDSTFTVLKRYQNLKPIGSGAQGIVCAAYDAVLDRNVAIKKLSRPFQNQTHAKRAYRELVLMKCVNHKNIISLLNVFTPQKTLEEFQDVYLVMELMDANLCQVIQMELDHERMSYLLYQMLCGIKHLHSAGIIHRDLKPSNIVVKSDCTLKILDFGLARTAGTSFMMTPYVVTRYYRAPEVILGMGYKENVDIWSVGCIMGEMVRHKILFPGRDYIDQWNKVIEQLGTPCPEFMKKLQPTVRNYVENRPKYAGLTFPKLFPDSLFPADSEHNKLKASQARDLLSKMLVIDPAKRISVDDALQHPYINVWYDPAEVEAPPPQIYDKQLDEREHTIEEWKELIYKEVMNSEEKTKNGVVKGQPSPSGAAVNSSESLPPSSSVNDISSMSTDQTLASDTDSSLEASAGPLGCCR

| SMILES | inhibition at 1 µM (EGFR (ErbB1)) | inhibition at 1 µM (MAPK10 (JNK3)) | inhibition at 1 µM (TNK2 (ACK)) | inhibition at 1 µM (INSR) | inhibition at 1 µM (LTK (TYK1)) | inhibition at 1 µM [1] | inhibition at 1 µM (FGFR2) | inhibition at 1 µM [2] | inhibition at 1 µM (MATK (HYL)) | inhibition at 1 µM (NTRK1 (TRKA)) | inhibition at 1 µM (MUSK) | inhibition at 1 µM (RAF1 (cRAF) Y340D Y341D) | inhibition at 1 µM (BRAF) | inhibition at 1 µM (NTRK3 (TRKC)) | inhibition at 1 µM (ABL2 (Arg)) | inhibition at 1 µM (ABL1) | inhibition at 1 µM [1, 3] |
| --- | --- | --- | --- | --- | --- | --- | --- | --- | --- | --- | --- | --- | --- | --- | --- | --- | --- |
| COc1cc2nccc(Oc3ccc(NC(=O)C4(C(=O)Nc5ccc(F)cc5)CC4)cc3)c2cc1OC [Cabozantinib, reference compound] | 32% | 3% | 61% | 16% | 20% | 0% | 16% | 2% | 10% | 98% | 92% | 66% | 13% | 97% | 35% | – | – |
| COc1cc2nccc(Oc3ccc(NC(=O)C4(NC(=O)c5ccc(F)cc5)CC4)cc3F)c2cc1OC [Cbo-02, N-(1-((4-((6,7-diMethoxyquinolin-4-yl)oxy)-3-fluorophenyl)carbamoyl)cyclopropyl)-4-fluorobenzamide] | 44% | 4% | 63% | 30% | 50% | – | 22% | 3% | 7% | 58% | 31% | -8% | 4% | 58% | 12% | 24% | -6% |
| COc1cc2nccc(Oc3ccc(NC(=O)C4(NC(=O)c5ccc(F)cc5)CC4)cc3F)c2cc1Oc1ccc(N)cc1F [Cbo-10] | 88% | 8% | 95% | 69% | 69% | – | 29% | 22% | 5% | 80% | 68% | 3% | 4% | 89% | 17% | 32% | 10% |
| COc1cc2nccc(Oc3ccc(NC(=O)C4(NC(=O)c5ccc(F)cc5)CC4)cc3F)c2cc1Oc1c(F)cc(N)cc1F [Cbo-14] | 89% | 4% | 96% | 70% | 79% | – | 37% | 0% | 8% | 71% | 76% | 3% | 1% | 98% | 18% | 44% | 3% |
| COc1cc2nccc(Oc3ccc(NC(=O)C4(C(=O)Nc5ccc(F)cc5)CC4)cc3F)c2cc1Oc1ccc(N)cc1F [Cbo-23] | 58% | -3% | 89% | 54% | 55% | – | 5% | -4% | 8% | 97% | 85% | 40% | 3% | 98% | 54% | 58% | 4% |

— patent US20250120967A1, “TYROSINE KINASES INHIBITORS AND USES THEREOF” (GREAT NOVEL THERAPEUTICS BIOTECH & MEDICALS CORPORATION, priority 2023, published 2025)
